According to patent US6399580B1, “Methods and compositions for stimulating tissue growth and epithelial moisturization” (The Regents of the University of California, priority 1994, dated 2002):

What was measured:
[1] = test system: cultured human keratinocytes; test: [3H]-thymidine incorporation and DNA content in cultured human keratinocytes; type: cell-based; conditions: 24 hours, FIG. 12
Method: To determine the ability of exogenous glucosylceramides (GlcCER) to stimulate epidermal proliferation, we applied various concentrations of GlcCER to cultural human keratinocytes (third passage). Keratinocytes were isolated from human neonatal foreskins by a modification of the method of Pittelkow, M. R. and Scott, R. E. ( (1986) Proc. Mayo Clin. 61:771-777) Cells were added to 100 mm plastic Petri dishes at a density of 1 to 2×10^4 cells/cm^2, and grown initially in 10mls of Keratinocyte Growth Medium (KGM) (Clonetics, San Diego, Calif.) with 0.07 mM calcium. The cultures were maintained at 35° C. under 5% CO2 in air, with medium changes performed three times weekly. After the cells reached 70%-80% confluence, they were switched to KGM medium containing 1.2 mM calcium, and harvested at one week post-confluence. GlcCER was added for the last 24 hours of culture and ^3H-thymidine (1 μCi/ml) was added one-to-three hours prior to harvesting of cells for measurement of DNA synthesis and DNA content. (Proksch, E., et al., J. Clin. Invest. 87:1668-1673 (1991).
Using the method described in Example 5, incorporation of [^3H]-thymidine and total DNA content were measured in cultured human keratinocytes (CHK) grown in serum-free keratinocyte growth medium (KGM) supplemented with 0.07 mM .calcium. Cultured cell were further supplemented as indicated, with ceramide (Cer; 5 or 10 μM), glucosylceramide (GlcCER; 1.25 or 2.5 μM), or a combination of ceramide and glucosylceramide (10 and 1.25 μM, respectively).
CHK cells were grown in serum-free KGM supplemented both with 0.07 mM calcium and 10 μM ceramide (CER). Increasing concentrations of glucosylceramide were added (2.5 to 10 μM), and both [^3H]-thymidine (1 μCi/ml) and [^14C]-leucine (1 μCi/ml) incorporation assays were performed.
CHK cells were grown (as in Example 6)in serum-free KGM (0.07 mM calcium) and supplemented with increasing concentrations of ceramide (CER) alone (dark bars), glucosylceramide (GlcCer) alone (back row), or the combination of ceramide (10 μM) with increasing glucosylceramide (front row). […] Glucosylceramide alone again stimulated thymidine incorporation (>20%) at low concentrations (1.25 and 2.5 μM).
CHK cells were grown (as in Example 6) in serum-free KGM ([…]) supplemented with glucosylceramide (GlcCER) alone, or in combination with the β-glucocerebrosidase-inhibitor, CBE (3 or 10 μM) (FIG. 12). Incorporation of [^3H]-thymidine was measured at 24 hours following supplementation, and values are reported as percent of unsupplemented controls (mean ±S.D.; n>6). […] A low CBE concentration (3 μM) was ineffective.

[2] = test system: hairless mouse epidermis; test: Epidermal / stratum corneum lipid content (HPTLC/TLC); type: in vivo
Method: Hairless mice were treated with BrCBE for 5 days as described in Example 10. The following high performance thin layer chromatograph (HPTLC) system was developed for optimal separation of ceramides and glucosylceramides for quantitation by spectrodensitometry. Extracts were applied to precleaned 10 ×20 cm HPTLC plates, 0.5 cm from lower edge of the plate and fractionated sequentially in a horizontal developmental chamber (Camag, Muttenz, Switzerland) in the following solvent systems: 1) chloroform:methanol:acetic acid (190:9:1), v/v/v) to the top, twice; 2) chloroform:methanol:acetone (76:20:4, by volume) to 30 mm. Between each development, the plate was dried for 5 minutes on a hot plate (40° C.), cooled for 2 minutes, and equilibrated in the tank with the solvents for 3 minutes. After final development, the plates were dried, cooled, dipped in charring solution (1.5% cupric sulfate in acetic acid:sulfuric acid:orthophosphoric acid:water (50:10:10:30, by volume) for 15 seconds, dried (40° .C) for 5 minutes, and then charred at 180° C. for 15 minutes. Plates were scanned with a variable wavelength scanning densitometer (Camag, Muttenz, Switzerland). Lipid amounts for each fraction were estimated using ceramides 3 and 4, and galactosylceramides 1 and 2 as reference standards (Sigma Chemical Co., St. Louis, Mo.).
The epidermal glucosylceramide content was determined in mice treated with the topical β-glucocerebrosidase inhibitors. Mice were treated with CBE for one day as described in FIG. 22. The mice were sacrificed and whole skin was excised. Subcutaneous fascia and fat were scraped off, and the samples were placed dermis side down onto […] EDTA in PBS-CMF (pH 7.4) and incubated at 37° C. for 40 min. Skin was blotted dry with a tissue and the epidermis was removed by scraping with a surgical blade. The epidermis was minced, placed into microcentrifuge vials, immediately snap frozen and stored in liquid N2 until extracted.
For extraction the tissue was soaked in 7.6 ml Bligh/Dyer extraction media (2 ml chloroform, 4 ml Methanol, 1.6 ml H2O) overnight at room temperature. The following day the tissue was shaken for 20 min. and centrifuged for 10 min. the solvent was removed and the pellet was combined with 7.6 ml Bligh/Dyer media and again shaken and centrifuged. The solvents were combined with solvent from the soaks and filtered through pre-solvent-washed Whatman 43 filter paper, 2 ml chloroform and 2 ml H2O was added to each 7.6 ml quantity of the filtrate and shaken for 10 min. The samples were then centrifuged and the upper phase discarded. The lower phase was washed with 4 ml chloroform, 4 ml MetOH, and 3.6 ml H2O (shaken for 10 min and centrifuged). The upper phase was discarded. The lower phase was dried under N2 in a 47° C. water bath. The lipid was resuspended in chloroform and weighed on the Cahn balance.
TLC was performed using 15-20 μg samples and quantitated against standard glycosylceramide and 40 μg sample for sphingolipids (Holleran, W. M. et al. (1993) J. Clin. Invest. 91:1656-1664).
Both glucosylceramide and ceramide content was then determined in lower (stratum basale) and upper (stratum spinosum, stratum granulosum and stratum corneum) epidermis (FIG. 23). Following 24 hours of CBE treatment samples were excised following treatment (as in Example 16).

[3] = one day of CBE treatment, FIG. 23

O[C@H]1[C@H](O)[C@@H](O)[C@@H]2O[C@@H]2[C@@H]1O (racemic) [CBE, conduritol-B-epoxide]
inhibition of thymidine incorporation caused by higher glucosylceramide concentrations ([1]; CBE 3 μM with GlcCER): ineffective
inhibition of thymidine incorporation caused by higher glucosylceramide concentrations ([1]; CBE 10 μM with GlcCER): blocked the inhibition
level of glucosylceramide, higher in treated samples ([2]; 20 μl of 250 nmol/μl CBE tid x5d, 250 mm^2 skin sample): 34-147%
level of glucosylceramide, higher in treated samples ([2]; 40 μl of 250 nmol/μl CBE tid x3d, 500 mm^2 skin sample): 57-152%
epidermal glucosylceramide content ([2]; one day of CBE application, FIG. 22): invariably increased
ceramide levels of upper and lower epidermis [2, 3]: not significantly altered
glucosylceramide content of upper and lower epidermis [2, 3]: significant increase
